{"source": "patent US9518018B2", "about": "“3-alkoxy, thioalkyl and amino-4-amino-6-(substituted)picolinates and their use as herbicides” (Dow AgroSciences LLC, priority 2011, dated 2016)", "type_in_all_cases": "in vivo", "key": {"[1]": {"system": "FIMMI = Fimbristylis miliacea (L.) VAHL (globe fringerush)", "experiment": "In-water applied herbicidal activity in transplanted paddy rice", "conditions": "21 DAA", "procedure": "(§1) Rice seeds were planted in Sun Gro MetroMix 306 planting mixture, which typically has a pH of 6.0 to 6.8 and an organic matter content of about 30 percent, in plastic plug trays. Seedlings at the second or third leaf stage of growth were transplanted into 650 mL of mud contained in 960 mL non-perforated plastic pots with a surface area of 86.59 cm^2 four days prior to herbicide application. The paddy was created by filling the 2.5 to 3 cm headspace of the pots with water. When required to ensure good germination and healthy plants, a fungicide treatment and/or other chemical or physical treatment was applied. The plants were grown for 4-14 d in a greenhouse with an approximate 14-h photoperiod which was maintained at about 29° C. during the day and 26° C. during the night. Nutrients were added as Osmocote (17:6:10, Nitrogen:Phosphorus:Potassium (N:P:K)+minor nutrients) at 2 grams (g) per cup. Water was added on a regular basis to maintain the paddy flood, and supplemental lighting was provided with overhead metal halide 1000-Watt lamps as necessary. The plants were employed for testing when they reached the second or third true leaf stage. Treatments consisted of compounds 45, 34, and 66. For technical grade compounds, a weighed amount, determined by the highest rate to be tested, was placed in an individual 120 mL glass vial and was dissolved in 20 mL of acetone to obtain concentrated stock solutions. […] The concentrated stock solutions obtained were diluted with 20 mL of an aqueous mixture containing 2.5% Agri-dex crop oil concentrate (v/v). Applications were made by injecting an appropriate amount of the stock solution into the aqueous layer of the paddy. Control plants were treated in the same manner with the solvent blank. All treated plant material received the same concentration of acetone and crop oil concentrate. The treated plants and control plants were placed in a greenhouse as described above and water was added as needed to maintain a paddy flood. After approximately 3 weeks, the condition of the test plants, compared with that of the untreated plants, was determined visually and scored on a scale of 0 to 100 percent where 0 corresponds to no injury and 100 corresponds to complete kill. By applying the well-accepted probit analysis as described by J. Berkson in Journal of the […], 48, 565 (1953) and by D. Finney in “Probit Analysis” Cambridge University Press (1952) or by plotting the mean data and fitting a logarithmic curve to the portion of the data where there was a dose response using Microsoft Excel®, the above data can be used to calculate GR50 and GR90 values, which are defined as growth reduction factors that correspond to the effective dose of herbicide required to kill or control 50 percent or 90 percent, respectively, of a target plant."}, "[2]": {"system": "ECHOR = Echinochloa crus-galli P.B. var. oryzoides (VAS.) OHWI (early watergrass)", "experiment": "In-water applied herbicidal activity in transplanted paddy rice", "conditions": "21 DAA", "procedure": "as §1"}, "[3]": {"system": "CYPRO = Cyperus rotundus L. (purple nutsedge)", "experiment": "In-water applied herbicidal activity in transplanted paddy rice", "conditions": "21 DAA", "procedure": "as §1"}, "[4]": {"system": "LEFCH = Leptochloa chinensis (L.) NEES (Chinese sprangletop)", "experiment": "In-water applied herbicidal activity in transplanted paddy rice", "conditions": "21 DAA", "procedure": "as §1"}, "[5]": {"system": "EPHHL: poinsettia, wild (Euphorbia heterophylla)", "experiment": "Pre-emergent Test I herbicidal activity", "conditions": "Table 5, 140 g ai/ha", "text": "(§2) Seeds of the desired test plant species were planted in a soil matrix prepared by mixing a loam soil (43 percent silt, 19 percent clay, and 38 percent sand, with a pH of about 8.1 and an organic matter content of about 1.5 percent) and sand in a 70 to 30 ratio. The soil matrix was contained in plastic pots with a surface area of 113 square centimeters. When required to ensure good germination and healthy plants, a fungicide treatment and/or other chemical or physical treatment was applied.\n(§3) A weighed amount, determined by the highest rate to be tested, of each test compound was placed in a 25 mL glass vial and was dissolved in 6 mL of a 97:3 v/v (volume/volume) mixture of acetone and DMSO to obtain concentrated stock solutions. […] The stock solutions obtained were diluted with 18 mL of a 0.1% v/v aqueous solution of Tween® 20 surfactant to obtain spray solutions containing the highest application rate. Additional application rates were obtained by serial dilution of 12 mL of the high rate solution into a solution containing 3 mL of 97:3 v/v mixture of acetone and DMSO and 9 mL of the 0.1% v/v aqueous solution of Tween® 20 surfactant to obtain ½×, ¼×, ⅛× and 1/16× rates of the high rate. Compound requirements are based upon a 12 mL application volume at a rate of 187 L/ha. Formulated compounds were applied to the plant material with an overhead Mandel track sprayer equipped with 8002E nozzles calibrated to deliver 187 L/ha over an application area of 0.503 square meters at a spray height of 18 inches ([…]) above the soil surface. Control plants were sprayed in the same manner with the solvent blank.\n(§4) The treated pots and control pots were placed in a greenhouse maintained with an approximate 15 hour photoperiod and temperatures of about 23-29° C. during the day and 22-28° C. during the night. Nutrients and water were added on a regular basis and supplemental lighting was provided with overhead metal halide 1000-Watt lamps as necessary. The water was added by top-irrigation. After 20-22 days, the condition of the test plants that germinated and grew as compared with that of the untreated plants that emerged and grew was determined visually and scored on a scale of 0 to 100 percent where 0 corresponds to no injury and 100 corresponds to complete kill or no emergence."}, "[6]": {"system": "CHEAL: lambsquarters (Chenopodium album)", "experiment": "Pre-emergent Test I herbicidal activity", "conditions": "Table 5, 140 g ai/ha", "text": "as §2, §3, §4"}, "[7]": {"system": "AMARE: pigweed, redroot (Amaranthus retroflexus)", "experiment": "Pre-emergent Test I herbicidal activity", "conditions": "Table 5, 140 g ai/ha", "text": "as §2, §3, §4"}, "[8]": {"system": "SETFA: foxtail, giant (Setaria faberi)", "experiment": "Pre-emergent Test I herbicidal activity", "conditions": "Table 5, 140 g ai/ha", "text": "as §2, §3, §4"}, "ZEAMX: corn (Zea mays)": {"system": "ZEAMX: corn (Zea mays)", "experiment": "Pre-emergent Test I herbicidal activity", "conditions": "Table 5, 140 g ai/ha", "text": "as §2, §3, §4"}, "[9]": {"conditions": "dose to kill or control 50 percent"}, "[10]": {"conditions": "dose to kill or control 90 percent"}}}
{"smiles": "COc1c(C(=O)OCc2ccccc2)nc(-c2ccc(Cl)c(OC)c2F)c(F)c1N", "note": "[Compound 66, benzyl 4-amino-6-(4-chloro-2-fluoro-3-methoxyphenyl)-5-fluoro-3-methoxypicolinate]", "values": [{"measurement": "Mean Visual Injury (%)-21 Days After Application FIMMI", "setting": "[1]; 2.19 g ae/ha", "value": 0, "unit": "%"}, {"measurement": "Mean Visual Injury (%)-21 Days After Application FIMMI", "setting": "[1]; 4.38 g ae/ha", "value": 10, "unit": "%"}, {"measurement": "Mean Visual Injury (%)-21 Days After Application FIMMI", "setting": "[1]; 8.75 g ae/ha", "value": 36, "unit": "%"}, {"measurement": "Mean Visual Injury (%)-21 Days After Application FIMMI", "setting": "[1]; 17.5 g ae/ha", "value": 73, "unit": "%"}, {"measurement": "Mean Visual Injury (%)-21 Days After Application FIMMI", "setting": "[1]; 35 g ae/ha", "value": 100, "unit": "%"}, {"measurement": "Mean Visual Injury (%)-21 Days After Application FIMMI", "setting": "[1]; 70 g ae/ha", "value": 100, "unit": "%"}, {"measurement": "GR50 FIMMI", "setting": "[1]; [9]", "value": 10.3, "unit": "g ae/ha"}, {"measurement": "GR90 FIMMI", "setting": "[1]; [10]", "value": 29.7, "unit": "g ae/ha"}, {"measurement": "Mean Visual Injury (%)-21 Days After Application ECHOR", "setting": "[2]; 2.19 g ae/ha", "value": 0, "unit": "%"}, {"measurement": "Mean Visual Injury (%)-21 Days After Application ECHOR", "setting": "[2]; 4.38 g ae/ha", "value": 0, "unit": "%"}, {"measurement": "Mean Visual Injury (%)-21 Days After Application ECHOR", "setting": "[2]; 8.75 g ae/ha", "value": 8, "unit": "%"}, {"measurement": "Mean Visual Injury (%)-21 Days After Application ECHOR", "setting": "[2]; 17.5 g ae/ha", "value": 21, "unit": "%"}, {"measurement": "Mean Visual Injury (%)-21 Days After Application ECHOR", "setting": "[2]; 35 g ae/ha", "value": 89, "unit": "%"}, {"measurement": "Mean Visual Injury (%)-21 Days After Application ECHOR", "setting": "[2]; 70 g ae/ha", "value": 95, "unit": "%"}, {"measurement": "GR50 ECHOR", "setting": "[2]; [9]", "value": 21.2, "unit": "g ae/ha"}, {"measurement": "GR90 ECHOR", "setting": "[2]; [10]", "value": 59.0, "unit": "g ae/ha"}, {"measurement": "Mean Visual Injury (%)-21 Days After Application CYPRO", "setting": "[3]; 4.38 g ae/ha", "value": 65, "unit": "%"}, {"measurement": "Mean Visual Injury (%)-21 Days After Application CYPRO", "setting": "[3]; 8.75 g ae/ha", "value": 100, "unit": "%"}, {"measurement": "Mean Visual Injury (%)-21 Days After Application CYPRO", "setting": "[3]; 17.5 g ae/ha", "value": 100, "unit": "%"}, {"measurement": "Mean Visual Injury (%)-21 Days After Application CYPRO", "setting": "[3]; 35 g ae/ha", "value": 100, "unit": "%"}, {"measurement": "Mean Visual Injury (%)-21 Days After Application CYPRO", "setting": "[3]; 70 g ae/ha", "value": 100, "unit": "%"}, {"measurement": "GR50 CYPRO", "setting": "[3]; [9]", "value": "<4.38", "unit": "g ae/ha"}, {"measurement": "GR90 CYPRO", "setting": "[3]; [10]", "value": 7.2, "unit": "g ae/ha"}, {"measurement": "Mean Visual Injury (%)-21 Days After Application LEFCH", "setting": "[4]; 2.19 g ae/ha", "value": 0, "unit": "%"}, {"measurement": "Mean Visual Injury (%)-21 Days After Application LEFCH", "setting": "[4]; 4.38 g ae/ha", "value": 0, "unit": "%"}, {"measurement": "Mean Visual Injury (%)-21 Days After Application LEFCH", "setting": "[4]; 8.75 g ae/ha", "value": 0, "unit": "%"}, {"measurement": "Mean Visual Injury (%)-21 Days After Application LEFCH", "setting": "[4]; 17.5 g ae/ha", "value": 0, "unit": "%"}, {"measurement": "Mean Visual Injury (%)-21 Days After Application LEFCH", "setting": "[4]; 35 g ae/ha", "value": 16, "unit": "%"}, {"measurement": "Mean Visual Injury (%)-21 Days After Application LEFCH", "setting": "[4]; 70 g ae/ha", "value": 100, "unit": "%"}, {"measurement": "GR50 LEFCH", "setting": "[4]; [9]", "value": 40.9, "unit": "g ae/ha"}, {"measurement": "GR90 LEFCH", "setting": "[4]; [10]", "value": 71.2, "unit": "g ae/ha"}]}
{"smiles": "COc1c(N)cc(-c2ccc(Cl)cc2)nc1C(=O)O", "note": "[Compound 46]", "values": [{"measurement": "Visual Growth Reduction (%)-21 Days after Application EPHHL", "setting": "[5]", "value": 100, "unit": "%"}, {"measurement": "Visual Growth Reduction (%)-21 Days after Application CHEAL", "setting": "[6]", "value": 95, "unit": "%"}, {"measurement": "Visual Growth Reduction (%)-21 Days after Application AMARE", "setting": "[7]", "value": 95, "unit": "%"}, {"measurement": "Visual Growth Reduction (%)-21 Days after Application SETFA", "setting": "[8]", "value": 100, "unit": "%"}, {"measurement": "Visual Growth Reduction (%)-21 Days after Application ZEAMX", "setting": "ZEAMX: corn (Zea mays)", "value": 0, "unit": "%"}]}
